Source: US20240158393A1, “PYRIDONE COMPOUNDS AND METHODS OF USE” (Exelixis, Inc., priority 2021, published 2024)

What was measured:
Human Met = target: T1, Human Met (Homo sapiens, UniProt P08581); test: Human Met kinase assay (33P radiometric / HTRF KinEase); format: biochemical; details: protocols of Examples D-1 and/or D-2; read-out: c-Met IC50
T1 construct: Human MET (residues 956-1390)
Method in brief: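 Two formats gave IC50s by curve fitting. HTRF KinEase used MET residues 956-1390 with 1 μM biotin-peptide and 3.0 μM ATP (Km) for 40 min at room temperature, ten doses in 3% DMSO, 665/620 nm read. The 33P transfer assay used mutant Met R974-S1390 A1209G/V1290L (3.4 nM), 10 μM ATP, 250 μM peptide, pH 7.0, 40 min, nine doses from 1 μM.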

Human Axl = target: T2, Human Axl (Homo sapiens, UniProt P30530); test: Human AXL kinase assay (33P radiometric / HTRF KinEase); format: biochemical; details: protocols of Examples A-1 and/or A-2
T2 construct: Human AXL (residues 464-885)
T2 sequence (P30530 1-894 Q764R): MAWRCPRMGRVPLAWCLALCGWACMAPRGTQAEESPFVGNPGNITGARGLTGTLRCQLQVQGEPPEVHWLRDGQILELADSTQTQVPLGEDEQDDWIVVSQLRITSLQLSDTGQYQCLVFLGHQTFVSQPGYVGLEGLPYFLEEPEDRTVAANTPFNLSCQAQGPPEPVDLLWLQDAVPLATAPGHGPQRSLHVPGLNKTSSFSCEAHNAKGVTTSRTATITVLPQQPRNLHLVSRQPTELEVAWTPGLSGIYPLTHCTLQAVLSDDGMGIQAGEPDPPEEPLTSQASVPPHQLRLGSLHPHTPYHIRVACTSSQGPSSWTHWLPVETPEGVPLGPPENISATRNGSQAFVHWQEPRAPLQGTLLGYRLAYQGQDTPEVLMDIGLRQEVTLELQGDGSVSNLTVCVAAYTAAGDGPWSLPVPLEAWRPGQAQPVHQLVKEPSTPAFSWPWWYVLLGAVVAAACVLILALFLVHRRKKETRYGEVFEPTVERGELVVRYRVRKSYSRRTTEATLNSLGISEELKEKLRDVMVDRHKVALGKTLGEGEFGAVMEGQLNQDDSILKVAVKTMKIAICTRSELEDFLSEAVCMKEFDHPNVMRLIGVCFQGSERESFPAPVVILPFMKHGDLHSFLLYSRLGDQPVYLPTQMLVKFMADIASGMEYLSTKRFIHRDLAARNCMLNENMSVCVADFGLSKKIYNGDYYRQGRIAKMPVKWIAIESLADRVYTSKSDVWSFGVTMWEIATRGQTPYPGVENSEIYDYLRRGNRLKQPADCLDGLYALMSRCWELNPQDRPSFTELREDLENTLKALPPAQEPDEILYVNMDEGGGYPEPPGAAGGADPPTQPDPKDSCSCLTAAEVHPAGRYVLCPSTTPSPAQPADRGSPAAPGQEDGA
Procedure: Kinase activity and compound inhibition were investigated using the ^33P-Phosphoryl transfer radiometric kinase assay, performed using the KinaseProfiler™ service of Eurofins Pharma Discovery Services UK Limited. Dose-response experiments were performed using nine compound concentrations in a 96-well microtiter plate. For each assay, all compounds were prepared to a 50× final assay concentration (50 μM) in 100% DMSO, then diluted in a half-log series, with the final top concentration at 1 μM. This working stock of the compound was added to the assay well as the first component in the reaction, followed by the remaining components as detailed in the following assay protocols below. The positive control wells (100% kinase activity) contain all components of the reaction including 2% DMSO (control for solvent effects), except the compound of interest. Blank wells contain all components of the reaction, with the reference inhibitor, staurosporine. This reference compound was used to abolish kinase activity and generated the 0% kinase activity base-line. IC50 values were calculated by nonlinear regression analysis using the sigmoidal dose-response (variable slope) curve fit on XLFit version 5.3 (ID Business Solutions).
Kinase activity and compound inhibition were also investigated using the HTRF® KinEase assay (Cisbio Cat #62TKOPEB) per manufacturer's instructions. In short, compounds were delivered in 300 nL volumes at 10 different concentrations in DMSO (3% final) to empty 384-well assay plates (Corning cat #3824). A mixture of enzyme, 1 μM biotinylated peptide substrate, and buffer in 10 μL volume was added. The assay was started upon the addition of ATP (at Km). The 10 μL reaction was incubated at room temperature. The reaction was stopped upon the addition of detection buffer containing streptavidin-XL665 (5 μL) and TK antibody-Eu3+(5 μL). After a 60 min incubation at room temperature, the fluorescence at 665 nm and 620 nm was read on an Envision microplate reader (Perkin Elmer).
Kinase activity normalized to DMSO (100% activity) and reference compound at 1 μM and (0% activity) was calculated using the fluorescence ratio […]. IC50 values were calculated by nonlinear regression analysis using a 4-parameter logistic curve fit in ActivityBase XE (IDBS).
Example A-1: Human Axl (residues H473-A894 with Q764R, 161 nM) was incubated with 8 mM MOPS pH 7.0, 0.2 mM EDTA, 250 μM KKSRGDYMTMQIG (SEQ ID NO:1), 10 mM magnesium acetate and 10 μM [γ-^33P-ATP]. The reaction was initiated by the addition of the Mg/ATP mix. After incubation for 40 minutes at room temperature, the reaction was stopped by the addition of phosphoric acid to a concentration of 0.5%. A reaction aliquot of 10 μL was then spotted onto a P30 filtermat and washed four times for 4 minutes in 0.425% phosphoric acid and once in methanol prior to drying and scintillation counting. Incorporated ^33P was measured using the Wallac Microbeta scintillation counter (Perkin Elmer).
Example A-2: Human AXL (residues 464-885; CarnaBio, 1 ng/well) was also incubated with enzymatic buffer (Cisbio) supplemented with 5 mM MgCl2, 1 mM DTT, and Supplemental Enzymatic Buffer (SEB; Cisbio). The mixture was added to the pre-plated compounds. The reaction was initiated upon addition of ATP at Km (1.0 μM). The reaction was incubated at room temperature for 50 min and stopped upon the addition of SA-XL665 and TK-antibody both diluted in EDTA-containing kinase detection buffer (Cisbio). The kinase activity was calculated as stated above and the IC50 values were reported.

T1 sequence (P08581 974-1390 limits assumed): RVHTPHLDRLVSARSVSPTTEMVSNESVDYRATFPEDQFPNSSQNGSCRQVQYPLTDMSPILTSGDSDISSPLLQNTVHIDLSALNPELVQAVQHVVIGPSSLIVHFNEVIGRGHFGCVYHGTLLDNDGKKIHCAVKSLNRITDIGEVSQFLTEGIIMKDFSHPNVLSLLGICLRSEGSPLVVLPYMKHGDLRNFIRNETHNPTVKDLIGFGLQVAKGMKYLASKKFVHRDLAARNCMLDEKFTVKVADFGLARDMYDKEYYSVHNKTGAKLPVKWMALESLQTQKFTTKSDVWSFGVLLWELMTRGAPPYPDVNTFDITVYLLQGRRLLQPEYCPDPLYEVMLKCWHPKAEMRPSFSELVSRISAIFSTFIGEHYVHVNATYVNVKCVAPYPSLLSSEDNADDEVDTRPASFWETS

IC50 (Human Met) [nM]	IC50 (Human Axl) [nM]	SMILES
≤ 100	≤ 100	COCCOc1cc2nccc(Oc3ccc(NC(=O)c4c(C)nc(C)c(C5=CCCC5)c4O)cc3F)c2nc1OC [Compound 41, 5-(Cyclopenten-1-yl)-N-[3-fluoro-4-[[6-methoxy-7-(2-methoxyethoxy)-1,5-naphthyridin-4-yl]oxy]phenyl]-4-hydroxy-2,6-dimethylpyridine-3-carboxamide]
> 300	100 to 300	COCCOc1cc2nccc(Oc3cc(F)c(NC(=O)c4c(C)n(C)c(C)c(C#N)c4=O)cc3F)c2nc1OC [Compound 83, 5-Cyano-N-[2,5-difluoro-4-[[6-methoxy-7-(2-methoxyethoxy)-1,5-naphthyridin-4-yl]oxy]phenyl]-1,2,6-trimethyl-4-oxopyridine-3-carboxamide]
≤ 100	≤ 100	COc1cc2nccc(Oc3ccc(NC(=O)c4c(C)n(C)c(C)c(N5CCCC5)c4=O)cc3F)c2nc1OC [Compound 89, N-[4-[(6,7-Dimethoxy-1,5-naphthyridin-4-yl)oxy]-3-fluorophenyl]-1,2,6-trimethyl-4-oxo-5-pyrrolidin-1-ylpyridine-3-carboxamide]
≤ 100	≤ 100	COc1cc2nccc(Oc3ccc(NC(=O)c4cn(CCF)c(C)c(C5=CCCCC5)c4=O)cc3F)c2nc1OC [Compound 8, 5-(Cyclohexen-1-yl)-N-[4-[(6,7-dimethoxy-1,5-naphthyridin-4-yl)oxy]-3-fluorophenyl]-1-(2-fluoroethyl)-6-methyl-4-oxopyridine-3-carboxamide]
≤ 100	≤ 100	COc1cc2nccc(Oc3ccc(NC(=O)c4cnc(C)c(C5=CCOCC5)c4O)cc3F)c2nc1OC [Compound 1-3, 5-(3,6-Dihydro-2H-pyran-4-yl)-N-[4-[(6,7-dimethoxy-1,5-naphthyridin-4-yl)oxy]-3-fluorophenyl]-4-hydroxy-6-methylpyridine-3-carboxamide]
> 300	≤ 100	COc1cc2nccc(Oc3ccc(NC(=O)c4c5n(cc(C6=CCOCC6)c4=O)CCOC5)cc3)c2nc1OC [Compound G1-8, 7-(3,6-Dihydro-2H-pyran-4-yl)-N-[4-[(6,7-dimethoxy-1,5-naphthyridin-4-yl)oxy]phenyl]-8-oxo-3,4-dihydro-1H-pyrido[2,1-c][1,4]oxazine-9-carboxamide]
≤ 100	≤ 100	COc1cnc2c(Oc3ccc(NC(=O)c4c(C)nc(C)c(C(C)C)c4O)cc3F)ccnc2c1 [Compound 32, N-[3-Fluoro-4-[(7-methoxy-1,5-naphthyridin-4-yl)oxy]phenyl]-4-hydroxy-2,6-dimethyl-5-propan-2-ylpyridine-3-carboxamide]
> 300	≤ 100	COc1cc2nccc(Oc3ccc(NC(=O)c4c(C)n(C)c(C)c(N5CCOCC5)c4=O)cc3F)c2nc1OC [Compound 88, N-[4-[(6,7-Dimethoxy-1,5-naphthyridin-4-yl)oxy]-3-fluorophenyl]-1,2,6-trimethyl-5-morpholin-4-yl-4-oxopyridine-3-carboxamide]
> 300	> 300	COc1cc2nccc(Oc3ccc(NC(=O)c4c(C)nc(C)c(C#N)c4O)cc3F)c2nc1OC [Compound 87, 5-Cyano-N-[4-[(6,7-dimethoxy-1,5-naphthyridin-4-yl)oxy]-3-fluorophenyl]-4-hydroxy-2,6-dimethylpyridine-3-carboxamide]
> 300	≤ 100	COc1cc2nccc(Oc3ccc(NC(=O)c4c(C)nc(C)c(C(=O)NC(C)C)c4O)cc3F)c2nc1OC [Compound 94, 3-N-[4-[(6,7-Dimethoxy-1,5-naphthyridin-4-yl)oxy]-3-fluorophenyl]-4-hydroxy-2,6-dimethyl-5-N-propan-2-ylpyridine-3,5-dicarboxamide]
≤ 100	≤ 100	COc1cc2nccc(Oc3ccc(NC(=O)c4c(C)nc(C)c(C(=O)N(C)C)c4O)cc3F)c2nc1OC [Compound 93, 3-N-[4-[(6,7-Dimethoxy-1,5-naphthyridin-4-yl)oxy]-3-fluorophenyl]-4-hydroxy-5-N,5-N,2,6-tetramethylpyridine-3,5-dicarboxamide]
> 300	100 to 300	COc1cc2nccc(Oc3ccc(NC(=O)c4c(C)n(C)c(C)c(C5CC5)c4=O)cc3F)c2nc1OC [Compound 46, 5-Cyclopropyl-N-[4-[(6,7-dimethoxy-1,5-naphthyridin-4-yl)oxy]-3-fluorophenyl]-1,2,6-trimethyl-4-oxopyridine-3-carboxamide]
≤ 100	≤ 100	COCCOc1cc2nccc(Oc3ccc(NC(=O)c4c(C)n(C)c(C)c(/C=C/C5CC5)c4=O)cc3F)c2nc1OC [Compound 51, 5-[(E)-2-Cyclopropylethenyl]-N-[3-fluoro-4-[[6-methoxy-7-(2-methoxyethoxy)-1,5-naphthyridin-4-yl]oxy]phenyl]-1,2,6-trimethyl-4-oxopyridine-3-carboxamide]
≤ 100	≤ 100	COc1cc2nccc(Oc3ccc(NC(=O)c4c(C)cc(C)n(C5CCCC5)c4=O)cc3F)c2nc1OC [Compound 15, 1-Cyclopentyl-N-[4-[(6,7-dimethoxy-1,5-naphthyridin-4-yl)oxy]-3-fluorophenyl]-4,6-dimethyl-2-oxopyridine-3-carboxamide]
≤ 100	≤ 100	COc1cnc2c(Oc3ccc(NC(=O)c4cn(C)c(C)c(C5=CCOCC5)c4=O)cc3F)ccnc2c1 [Compound 12, 5-(3,6-Dihydro-2H-pyran-4-yl)-N-[3-fluoro-4-[(7-methoxy-1,5-naphthyridin-4-yl)oxy]phenyl]-1,6-dimethyl-4-oxopyridine-3-carboxamide]
≤ 100	≤ 100	COCCOc1cc2nccc(Oc3ccc(NC(=O)c4cnc(C)c(/C=C/C5CC5)c4O)cc3F)c2nc1OC [Compound 37, 5-[(E)-2-Cyclopropylethenyl]-N-[3-fluoro-4-[[6-methoxy-7-(2-methoxyethoxy)-1,5-naphthyridin-4-yl]oxy]phenyl]-4-hydroxy-6-methylpyridine-3-carboxamide]
